Source: patent publication US20080282364A1, “Phosphodiesterase 9 Inhibition as Treatment for Obesity-Related Conditions” (priority 2003, published 2008)

Tested on: ob/ob mice
Assay: Effect of pharmacologic PDE9 inhibition on body weight, food intake and plasma metabolites in ob/ob mice
Format: in vivo, mouse
Details: female ob/ob mice
Method: On Day 1, plasma glucose was determined via retro-orbital blood samples. 25 μL of blood was added to 100 μL of 0.025 percent heparinized-saline in microtubes (Denville Scientific, Inc., Metuchen, N.J.). The tubes were spun at the highest setting in a Beckman Microfuge 12 for 2 minutes. Plasma was collected for plasma glucose and triglyceride determination, as further described below. During the course of the study, body weight and food consumption were assessed, and blood samples were taken at approximately 8 am for plasma glucose and triglyceride measures, as further described below.
Plasma glucose, triglycerides, and fructosamine were measured using the Roche/Hitachi 912 Clinical Chemistry Analyzer (Roche Diagnostics Corp., Indianapolis, Ind.). Plasma cGMP was measured using the BioTrak™ enzyme-immunoassay system (Amersham, Piscataway, N.J.). Plasma insulin was assessed via a similar technique using the Mercodia ELISA Insulin kit supplied by ALPCO (Uppsala, Sweden). All assays were conducted according to each manufacturer's instructions.
Female ob/ob mice obtained from Jackson Laboratories (Bar Harbor, Me.) were used at 6 to 10 weeks of age. Mice were housed five per cage and allowed free access to water and, initially, to D11 mouse chow. Following a one week acclimation period, mice were switched to a powdered diet (Mouse Breeder/Auto-JL K20 mouse chow, PMI Feeds, Inc., St. Louis, Mo.) for three days and allowed to adapt to the diet prior to the start of the PDE9 inhibitor dosing period.
The PDE9 inhibitor compound (Compound A) was administered in powdered mouse chow that was custom ground (Research Diets, Inc., New Brunswick, N.J.) as a compound/chow admixture; compounds were mixed with the chow to achieve consumption of the specified doses ranging from 1-200 mg/kg/day. In addition to a compound-free control group, a group consuming darglitazone (1 mg/kg/day) was also included as a positive control.
Mice were randomly assigned to groups of ten with five mice per cage. Body weight was determined on Day 0 and weekly thereafter. On Day 1, retro-orbital blood samples were obtained and plasma glucose was determined as previously described. On the final day of the study, blood samples were taken for glucose, triglyceride, insulin, and cGMP measurements, as previously described.

## CC(C)c1n[nH]c2c(=O)[nH]c(Cc3ccccc3OCCN3CCOCC3)nc12 [Compound A, 3-isopropyl-5-[2-(2-morpholin-4-yl-ethoxy)-benzyl]-1,6-dihydro-pyrazolo[4,3-d]pyrimidin-7-one]
100 mg/kg/day (FIG. 10)
  plasma glucose: decreased
100 mg/kg/day (FIG. 11)
  plasma triglycerides: decreased
100 mg/kg/day in chow, compared to compound-free control diet or darglitazone-treated diet (FIG. 7)
  body weight gain: reduced body weight gain
100 mg/kg/day, Day 16 (FIG. 12)
  plasma fructosamine: decreased
100 mg/kg/day, later stages of the study (FIG. 9)
  food intake: no effect on food intake
Following 2 and 4 days of treatment (FIG. 8A)
  reducing the normal body weight gain (dose effect): dose-dependent effect
Following 2 and 4 days of treatment (FIG. 8B)
  reducing food intake (dose effect): dose-dependent effect
